Reference: patent publication US20020137929A1, “1 - (3-heterocyclylphenyl) isothiourea, -isourea, -guanidine and -amidine herbicidal agents” (Intellectual Property Department, BASF Aktiengesellschaft, priority 1998, published 2002)

Tests used:
ZEAMX (Corn, Field) = assay: Postemergence herbicidal evaluation; format: in vivo, Zea mays; settings: postemergence
In short: (§1)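 Two-week seedlings sprayed postemergence at 40 psi; formulation: 1:1 acetone/water, 0.5% TWEEN 20; application ≈0.0156–0.500 kg/ha. Greenhouse grow-out, then 0–9 visual scoring at 4–5 weeks.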

ORYSAT (Rice, Tebonnet) = assay: Postemergence herbicidal evaluation; format: in vivo, Oryza sativa, (L.) Tebonnet; settings: postemergence
In short: as §1

AMBEL (Ragweed, Common) [1] = assay: Preemergence herbicidal evaluation; format: in vivo, Ambrosia artemisifolia; settings: rated 4-5 weeks after treatment, rating scale 0-9
In short: (§2)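 Seeds were planted in potting soil in cups, then sprayed preemergence with the test compound in aqueous acetone at about 0.0156 to 0.500 kg per hectare. Cups were kept under greenhouse conditions and visually rated 4–5 weeks after treatment on a 0–9 scale against an untreated control.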

GALAP (Galium) = assay: Preemergence herbicidal evaluation; format: in vivo, Galium aparine; settings: rated 4-5 weeks after treatment, rating scale 0-9
In short: as §2

CASOB (Sicklepod) = assay: Preemergence herbicidal evaluation; format: in vivo, Cassia obtusifolia; settings: rated 4-5 weeks after treatment, rating scale 0-9
In short: as §2

[2] = system: GLXMAW (Soybean, Williams); assay: Postemergence herbicidal evaluation; format: in vivo, Glycine max, (L.) Merr. cv Williams; settings: postemergence
In short: as §1

AMBEL (Ragweed, Common) [3] = assay: Postemergence herbicidal evaluation; format: in vivo, Ambrosia artemisifolia; settings: postemergence
In short: as §1

ECHCG (Barnyardgrass) = assay: Postemergence herbicidal evaluation; format: in vivo, Echinochloa crus-galli; settings: postemergence
In short: as §1

[4] = system: CHEAL (Lambsquarters, Common); assay: Postemergence herbicidal evaluation; format: in vivo, Chenopodium album; settings: postemergence
In short: as §1

ABUTH (Velvetleaf) = assay: Postemergence herbicidal evaluation; format: in vivo, Abutilon theophrasti; settings: postemergence
In short: as §1

[5] = system: CHEAL (Lambsquarters, Common); assay: Preemergence herbicidal evaluation; format: in vivo, Chenopodium album; settings: rated 4-5 weeks after treatment, rating scale 0-9
In short: as §2

CYPSE (Flatsedge) = assay: Preemergence weed control under flooded paddy conditions; format: in vivo, Cyperus serotinus; settings: rated 3-4 weeks after treatment
In short: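 First, seeds or propagules go into the top 0.5 cm of silt loam; next, water is held 1.5 to 3 cm over the soil; then compound (50/50 acetone/water) is pipetted into it at about 0.0313 to 0.500 kg/ha; finally plants are rated visually 0-9 after three to four weeks.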

Cn1c(C(F)(F)F)cc(=O)n(-c2cc(N=C3SCC(=O)N3Cc3ccc(Br)cc3)c(Cl)cc2F)c1=O [Compound 148, 3-{5-{[3-(p-Bromobenzyl)-4-oxo-2-thiazolidinyl-idene]amino}-4-chloro-2-fluorophenyl}-1-methyl-6-(trifluoromethyl)-2,4(1H,3H)-pyrimidinedione]
herbicidal rating ZEAMX (ZEAMX (Corn, Field); rate 0.0156 kg/ha): 4.0 | herbicidal rating ZEAMX (ZEAMX (Corn, Field); rate 0.0313 kg/ha): 4.0 | herbicidal rating ZEAMX (ZEAMX (Corn, Field); rate 0.0625 kg/ha): 5.0 | herbicidal rating ORYSAT (ORYSAT (Rice, Tebonnet); rate 0.0156 kg/ha): 2.0 | herbicidal rating ORYSAT (ORYSAT (Rice, Tebonnet); rate 0.0313 kg/ha): 3.0 | herbicidal rating ORYSAT (ORYSAT (Rice, Tebonnet); rate 0.0625 kg/ha): 3.0 | Preemergence herbicidal rating AMBEL (AMBEL (Ragweed, Common) [1]; rate 0.0313 kg/ha): 0.0 | Preemergence herbicidal rating AMBEL (AMBEL (Ragweed, Common) [1]; rate 0.0625 kg/ha): 0.0 | Preemergence herbicidal rating AMBEL (AMBEL (Ragweed, Common) [1]; rate 0.1250 kg/ha): 0.0 | Preemergence herbicidal rating AMBEL (AMBEL (Ragweed, Common) [1]; rate 0.2500 kg/ha): 4.0 | Preemergence herbicidal rating GALAP (GALAP (Galium); rate 0.0313 kg/ha): 0.0 | Preemergence herbicidal rating GALAP (GALAP (Galium); rate 0.0625 kg/ha): 0.0 | Preemergence herbicidal rating GALAP (GALAP (Galium); rate 0.1250 kg/ha): 0.0 | Preemergence herbicidal rating GALAP (GALAP (Galium); rate 0.2500 kg/ha): 0.0 | Preemergence herbicidal rating CASOB (CASOB (Sicklepod); rate 0.0313 kg/ha): 0.0 | Preemergence herbicidal rating CASOB (CASOB (Sicklepod); rate 0.0625 kg/ha): 0.0 | Preemergence herbicidal rating CASOB (CASOB (Sicklepod); rate 0.1250 kg/ha): 0.0 | Preemergence herbicidal rating CASOB (CASOB (Sicklepod); rate 0.2500 kg/ha): 0.0 | herbicidal rating GLXMAW ([2]; rate 0.0156 kg/ha): 4.5 | herbicidal rating GLXMAW ([2]; rate 0.0313 kg/ha): 5.0 | herbicidal rating GLXMAW ([2]; rate 0.0625 kg/ha): 6.5 | herbicidal rating AMBEL (AMBEL (Ragweed, Common) [3]; rate 0.0156 kg/ha): 9.0 | herbicidal rating AMBEL (AMBEL (Ragweed, Common) [3]; rate 0.0313 kg/ha): 7.0 | herbicidal rating AMBEL (AMBEL (Ragweed, Common) [3]; rate 0.0625 kg/ha): 9.0 | herbicidal rating ECHCG (ECHCG (Barnyardgrass); rate 0.0156 kg/ha): 2.0 | herbicidal rating ECHCG (ECHCG (Barnyardgrass); rate 0.0313 kg/ha): 3.0 | herbicidal rating ECHCG (ECHCG (Barnyardgrass); rate 0.0625 kg/ha): 3.0 | herbicidal rating CHEAL ([4]; rate 0.0156 kg/ha): 4.0 | herbicidal rating CHEAL ([4]; rate 0.0313 kg/ha): 7.0 | herbicidal rating CHEAL ([4]; rate 0.0625 kg/ha): 7.0 | herbicidal rating ABUTH (ABUTH (Velvetleaf); rate 0.0156 kg/ha): 9.0 | herbicidal rating ABUTH (ABUTH (Velvetleaf); rate 0.0313 kg/ha): 9.0 | herbicidal rating ABUTH (ABUTH (Velvetleaf); rate 0.0625 kg/ha): 9.0 | Preemergence herbicidal rating CHEAL ([5]; rate 0.0313 kg/ha): 6.0 | Preemergence herbicidal rating CHEAL ([5]; rate 0.0625 kg/ha): 9.0 | Preemergence herbicidal rating CHEAL ([5]; rate 0.1250 kg/ha): 9.0 | Preemergence herbicidal rating CHEAL ([5]; rate 0.2500 kg/ha): 9.0 | herbicidal effect rating, CYPSE (CYPSE (Flatsedge); 0.0313 kg/ha): 0.0 | herbicidal effect rating, CYPSE (CYPSE (Flatsedge); 0.1250 kg/ha): 0.0 | herbicidal effect rating, CYPSE (CYPSE (Flatsedge); 0.2500 kg/ha): 5.0
